Type in all cases: biochemical
In assay [1] the target is DENV2 NS2B-NS3 protease (Dengue virus type 2, UniProt P14340). The experiment in a line: In vitro DENV2 NS2B-NS3pro inhibition assay. Particulars: compound 25 μM, protease 25 nM, absence of detergent (Figure 2).
The target in assay [2] is DENV2 NS2B-NS3pro (Dengue virus type 2, UniProt P14340). The assay is described as follows: Steady-state kinetics of 7n against DENV2 NS2B-NS3pro. Particulars: 0.025 μM protease.
Assay [3] deals with WNV NS2B-NS3pro (West Nile virus, UniProt Q9Q6P4). The experiment in a line: In vitro WNV NS2B-NS3pro inhibition assay. Particulars: compound 25 μM, protease 28 nM, 0.1% CHAPS (Figure 3).
Sequence of WNV NS2B-NS3pro (Q9Q6P4 1506-1683): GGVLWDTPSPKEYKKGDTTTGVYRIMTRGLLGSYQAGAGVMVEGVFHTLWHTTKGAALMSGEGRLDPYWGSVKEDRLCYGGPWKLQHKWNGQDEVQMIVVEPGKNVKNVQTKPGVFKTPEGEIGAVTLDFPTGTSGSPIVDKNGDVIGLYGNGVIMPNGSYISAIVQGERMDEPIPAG
Sequence of WNV NS2B-NS3pro (Q9Q6P4 1428-1467): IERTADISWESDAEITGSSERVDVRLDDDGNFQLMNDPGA

Sequence of DENV2 NS2B-NS3pro (P14340 1476-1653): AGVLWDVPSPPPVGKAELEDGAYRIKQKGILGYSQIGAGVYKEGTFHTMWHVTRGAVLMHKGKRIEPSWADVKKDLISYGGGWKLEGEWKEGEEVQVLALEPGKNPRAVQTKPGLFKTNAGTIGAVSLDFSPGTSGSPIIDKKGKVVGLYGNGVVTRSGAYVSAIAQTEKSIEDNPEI
Sequence of DENV2 NS2B-NS3pro (P14340 1398-1437): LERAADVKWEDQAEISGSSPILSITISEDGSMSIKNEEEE
Sequence of DENV2 NS2B-NS3 protease (P14340 1476-1653): as the sequence (P14340 1476-1653) above
Sequence of DENV2 NS2B-NS3 protease (P14340 1398-1437): as the sequence (P14340 1398-1437) above

For “Methyl 4-((4-((3-(2-(3-oxobenzo[d]isothiazol-2(3H)-yl)acetamido)phenoxy)methyl)-1H-1,2,3-triazol-1-yl)methyl)benzoate [Compound 7e]”, the “inhibitory activity toward DENV NS2B-NS3pro (in words)” value in assay [1] is “noteworthy inhibitory activity”.

Turning to `O=C(Cn1sc2ccccc2c1=O)Nc1cccc(OCc2cn(CC(=O)Nc3ccccc3Oc3ccccc3)nn2)c1` [Compound 7n, N-(3-((1-(2-Oxo-2-(2-phenoxyphenylamino)ethyl)-1H-1,2,3-triazol-4-yl)methoxy)phenyl)-2-(3-oxobenzo[d]isothiazol-2(3H)-yl)acetamide], the Vmax in assay [2] (inhibitor [7n] 1 μM) worked out at 0.1006 ± 0.0029 µM/min; in assay [2] (inhibitor [7n] 2 μM), 0.0978 ± 0.0020 µM/min; in assay [2] (inhibitor [7n] 5 μM) it was 0.0994 ± 0.0010 µM/min.

Turning to `O=C(Cn1sc2ccccc2c1=O)NCc1cn(CC(=O)Nc2ccc(Oc3ccccc3)cc2)nn1` [Compound 4l, N-((1-(2-Oxo-2-(4-phenoxyphenylamino)ethyl)-1H-1,2,3-triazol-4-yl)methyl)-2-(3-oxobenzo[d]isothiazol-2(3H)-yl)acetamide], in assay [1], the “inhibitory activity toward DENV NS2B-NS3pro (in words)” value was “noteworthy inhibitory activity”. Further, in assay [3], the “inhibitory activity toward WNV NS2B-NS3pro (in words)” value is “weak inhibitory activity”.

By Vmax is commonly meant the rate approached at saturating substrate.

Values taken from paper PMC3279297 (Bioorganic & medicinal chemistry, 2011).
